A compilation of properties of binary mixtures (doi:10.1007/s10953-010-9562-5)

Assay: xn = mol fraction of the nth substance listed
Settings: 101 kPa

CCCC[N+]1(C)CCCC1.O=S(=O)([N-]S(=O)(=O)C(F)(F)F)C(F)(F)F + CC1COC(=O)O1
Settings	electrical conductivity, 253.15 K [S/m]	electrical conductivity, 258.15 K [S/m]	electrical conductivity, 263.15 K [S/m]	electrical conductivity, 268.15 K [S/m]	electrical conductivity, 273.15 K [S/m]	electrical conductivity, 278.15 K [S/m]	electrical conductivity, 283.15 K [S/m]	electrical conductivity, 288.15 K [S/m]	electrical conductivity, 293.15 K [S/m]	viscosity, 293.15 K [mPa·s]
x2 = 0	0.017	0.031	0.045	0.072	–	0.152	0.193	0.249	–	–
x2 = 0.05	0.021	0.037	–	0.082	0.122	0.168	–	0.271	0.328	70.58
x2 = 0.11	–	0.043	0.062	0.094	0.137	0.185	0.234	0.295	0.357	59.09
x2 = 0.16	0.032	–	0.073	0.108	0.154	0.205	–	0.322	0.388	50.53
x2 = 0.21	–	0.061	0.086	0.124	0.173	0.228	0.284	0.351	0.421	44.05
x2 = 0.26	0.049	–	0.102	0.143	–	–	0.313	–	0.458	38.97
x2 = 0.32	0.06	0.086	0.12	0.165	0.22	0.281	0.346	0.42	0.498	34.77
x2 = 0.37	0.074	0.102	–	0.19	0.249	0.312	–	0.459	0.542	31.1
x2 = 0.42	0.09	0.121	0.165	0.218	–	0.347	0.421	0.501	0.588	27.69
x2 = 0.47	–	0.144	0.193	0.251	0.316	0.385	0.464	–	0.638	24.42
x2 = 0.53	0.13	0.169	–	0.288	0.356	0.426	0.51	0.595	–	–
x2 = 0.58	0.155	–	0.261	0.328	0.399	0.47	–	0.645	0.742	18.11
x2 = 0.63	–	0.231	0.3	0.372	0.444	0.516	0.606	0.696	0.794	15.13
x2 = 0.68	0.213	0.266	0.341	–	0.491	0.562	–	0.745	–	–
x2 = 0.74	0.243	0.302	0.381	0.461	–	0.604	0.697	–	–	–
x2 = 0.79	–	0.333	0.415	0.496	0.57	0.637	0.728	–	–	–
x2 = 0.84	0.287	0.353	0.432	0.512	0.585	0.649	0.735	0.821	–	–
x2 = 0.89	–	0.344	–	0.487	0.559	0.621	–	0.776	–	–
x2 = 0.95	0.232	0.274	0.323	0.377	0.445	–	–	0.63	–	–
x2 = 0.97	0.165	0.182	0.232	0.296	0.375	0.414	–	0.528	–	–
